Usually pKa stands for the pH at which an ionisable group is half protonated.

Consider 56 compounds from the pKa sets of Baltruschat and Czodrowski (2020).

For one data set the following is noted: acidic group.
Take `S=C(Nc1ccccc1)c1ccccc1`: the pKa was found to be 10.9. For `CC(=O)c1cc(C(=O)C(C)(C)C)[nH]n1`, the pKa worked out at 9.7. Same read-out and setting: with `C=CC#CCC(=O)O` the figure was 3.41.

As for `OB(O)c1cccc(O)c1`, the pKa worked out at 8.55. For `O=C(O)c1c(Cl)cccc1[N+](=O)[O-]`, the pKa is 1.41. Turning to `O=C1NC(=O)[C@H](CSSC[C@@H]2NC(=O)NC2=O)N1`, the pKa was found to be 8.1.

Turning to `CC(c1cccc(C(F)(F)F)c1)[N+](=O)[O-]` (configuration not stated), the pKa worked out at 6.96.

Compound `C[n+]1ccccc1C(C)(O)O` registered a pKa of 10.6. The same measure, in the same setting: in the case of `CCOC(=O)COc1ccc(Cc2ccc(O)c(C[NH3+])c2)c(Cl)c1Cl` it was 8.73; in that of `O=C1C(=O)C(c2ccccc2)C1=O`, 0.37. On to `O=C(O)c1csc(Br)c1`, for which the pKa came out at 3.7.

`O=COO` yielded a pKa of 7.1. Still for that read-out and setting: with `S=C(Nc1ccc(Cl)cc1)c1cccc(Br)c1` the figure was 10.1; with `CN(C)c1cccc(NC=S)c1`, 11.8. Still for that read-out and setting: with `Cc1ccnc2c(O)cccc12` the figure was 8.44; with `S=C(Nc1ccccc1)c1cccc(Br)c1`, 10.5. `Cc1cc(C(=O)O)ccc1Cl` showed a pKa of 4.07. Still for that read-out and setting: with `NC(=S)c1ccc(Br)cc1` the figure was 12.5; with `[N-]=[N+]=Nc1ncnc2nc[nH]c12`, 7.6; with `CCn1nnnc1NC(C)=O`, 8.38.

In turn, `CCCCc1c(-c2ccccc2)nn(-c2ccccc2)c1O` had a pKa of 7.2. The compound `CC(O)=C(C#N)C#N` had a pKa of 1.

`O=C(Oc1cccc(Cl)c1)C1c2ccccc2-c2ccccc21` yielded a pKa of 10.2. Compound `NC(=O)Nc1ccc([N+](=O)[O-])cc1` gave a pKa of 14. With `OCc1cccc(CO)c1O`, the pKa was determined as 9.66.

For the compound `CC(C)C1CC(CC(=O)O)[NH2+]C1C(=O)O` (configuration not stated), the pKa came out at 2.1. Compound `COc1cccc(CN)c1O` came in with a pKa of 11.1. On the same count and under the same terms, in the case of `Cc1cc(C(O)=C(C#N)C#N)cc(C)c1O` it was 2.55.

In turn, `O=C(O)C12CC3(F)CC(F)(CC(F)(C3)C1)C2` gave a pKa of 3.24.

Still in this data set, the particulars now being: basic group.
`CCC1CCCN1C` (configuration not stated) showed a pKa of 9.78.

Consider `CCOc1ccc2c3c1O[C@H]1[C@@H](O)C=C[C@H]4[C@@H](C2)N(C)CC[C@@]341`, for which the pKa amounted to 8.03. In the case of `CCOCCNc1ccc(OC)cc1`, the pKa is 4.99. Compound `CCN(CC)CCNc1nc(C)cc(N)n1` showed a pKa of 9.8. Compound `Cc1cc2cccc(C)c2nc1C` returned a pKa of 4.41.

On to `C[C@H]1CN[C@@H](C)CN1`, for which the pKa stood at 9.98. The same measure, in the same setting: in the case of `[NH3+]Cc1nc2ccccc2[nH]1` it was 3.28; in that of `O=C(/C=N/O)NCCN1CCOCC1`, 6.19; in that of `CN(C)Cc1ccc(O)c(O)c1O`, 8.26. On the same count and under the same terms, in the case of `O=C(O)c1ccc(O)c2ncccc12` it was 4; in that of `CCCCNCC/C(N)=N/O`, 9.6. In turn, `O=C(c1ccccc1)n1cnc2ccccc21` gave a pKa of 1.8.

As to `Nc1ncc([N+](=O)[O-])s1`, the pKa came out at 0.61.

`CN(CCCN)CCC[NH3+]` registered a pKa of 9.27. `Cc1nnc(N)nc1C` returned a pKa of 3.71. Still for that read-out and setting: in the case of `C=C1CC1C[C@H](N)C(=O)[O-]` (some centres not stated) it was 9.37; in that of `CN(C)c1ccc[nH+]c1`, -1.91.

The compound `c1ccc(CSc2ccncc2)cc1` returned a pKa of 5.41.

`CCCNC1c2ccccc2C=Cc2ccccc21`: the pKa was 8.9. Still for that read-out and setting: with `C1CN=C2NCCC2C1` (configuration not stated) the figure was 11.7; with `CCCCNCC[NH2+]CCCC`, 7.46.

The compound `C=C(C)C(=O)NCCN(CC)CC` showed a pKa of 9.37. The compound `CC(C)(N)C(C)(C)[NH3+]` came in with a pKa of 6.56. `CN/C=N/c1cccc(-c2csc(N=C(N)N)n2)c1` came in with a pKa of 8.29. For `OCNc1ccc(Cl)cc1`, the pKa turned out to be 2.22. Same read-out and setting: in the case of `COc1cccc(CN)c1O` it was 8.7. Still for that read-out and setting: with `c1ccc(-c2ccc3ncc(CN4CCOCC4)n3n2)cc1` the figure was 6.21; with `NC(=O)CCc1cccnc1`, 5.21.
